Data: PMC8686256, “DZNep promotes mouse bone defect healing via enhancing both osteogenesis and osteoclastogenesis” (Stem Cell Research & Therapy, 2021)

Assays:
Assay type in all cases: cell-based, mouse
[1] = test system: MAPKs signaling pathways; experiment: Western blotting of MAPKs signaling pathways; settings: RAW264.7, 25 nM pretreatment, vs control
Description: To explore the variation of the proteins on long-term activated signaling, BMMs were cultured in α-MEM containing M-CSF (30 ng/ml) and RANKL (50 ng/ml) at a density of 2 × 10^5 cells/well on 6-well plates. After 24 h, the BMMs were treated with or without 25 nM DZNep for 0, 1, 3, and 5 days, and total protein was obtained, respectively, on these specific time points. To determine the effect of DZNep on the protein of short-time activated phosphorylated, RAW264.7 cells were cultured in α-MEM at a density of 5 × 10^5 cells/well on 6-well plates. One day later, the cells were treated with the serum-free α-MEM in the presence or absence of DZNEP for 3 hand then stimulated with 50 ng/mL RANKL for 0, 10, 20, 30, and 60 min. To determine the efficiency of EZH2 shRna, BMMs were cultured in α-MEM at a density of 5 × 10^5 cells/well on 6-well plates. One day later, the cells were treated with negative control shRNA or different EZH2 shRNA for 2 days. To determine the efficiency of Foxc1 siRna, BMMs were cultured in α-MEM at a density of 5 × 10^5 cells/well on 6-well plates. […] After TBST wash for 3 times, the secondary fluorescence antibodies were incubated without light for 1 h at room temperature and the reactivity was visualized by using Odyssey V3.0 image scanning (Li-COR. Inc., Lincoln, NE, USA). […]

[2] = test system: primary BMSC; experiment: CCK-8 cytotoxicity on BMSC; settings: 100 nM; 12, 48, and 96 h
[3] = test system: Wnt signaling pathway-related and osteoblast-specified genes in BMSC; experiment: qPCR of Wnt and osteoblast genes in BMSC
Description: BMMs were cultured in 6-well plates at the density of 2 × 10^5 cells/well in α-MEM supplemented with M-CSF (30 ng/ml), RANKL (50 ng/ml). The cells were then treated with or without 25 nM DZNep for 0, 1, 3, 5 days, or with various concentrations of DZNEP (0, 6.25, 25 nM) for 5 days, or with negative control siRNA, negative control siRNA with DZNep, and Foxc1 small interfering RNA (siRNA) with DZNep for 5 days. Once the culture completed, the Axygen RNA Miniprep Kit (Axygen, Union City, CA, USA) was used to extract the total RNA. BMSC were seeded in a 6-well plate at a number of 4 × 10^5 cells/well and treated with 0, 25, 50, 100 nM of DZNep combined with osteoblast-cultured medium for 24 h, or with or without 100 nM DZNep combined with osteoblast-cultured medium for 0 and 7 days, or with negative control siRNA, negative control siRNA with DZNep, and Wnt4 small interfering RNA (siRNA) with DZNep combined with osteoblast-cultured medium for 7 days. Once the culture completed, the Axygen RNA Miniprep Kit (Axygen, Union City, CA, USA) was used to extract the total RNA. After reverse transcription to obtain cDNA from the RNA template by using the Prime Script RT reagent Kit was finished. The real-time PCR assay was subsequently performed by using the SYBR® Premix Ex Taq™ II on an ABI 7500 Sequencing Detection System (Applied Biosystems, Foster City, CA). Specifically, total volume of 10 μl liquid consisted by 5 μl of SYBR® Premix Ex Taq™ II, 1 μl of diluted cDNA, 0.4 μl of mixed forward and reverse primer, and 3.6 μl of ddH2O was added into each hole of 384 PCR plate. Conditions of the 40 cycles were: 95 °C for 5 s and 60 °C for 30 s. The melting curves and reverse transcription PCR (RT-PCR) were the methods to detect the specificity of amplification product. Each target’s quantity, run in triplicate, was normalized to Actin Beta (Actb). […]

Nc1nccc2c1ncn2C1C=C(CO)C(O)C1O (centres unmarked) [DZNep, 3-Deazaneplanocin]
phosphorylation of JNK, p38, and ERK [1]: comparable
cytotoxicity on primary BMSC [2]: no cytotoxicity was found
expression of Wnt4, Wnt1, Wnt6, Wnt10a (qPCR) ([3]; 0, 25, 50, 100 nM, 24 h): increased in a concentration-dependent manner
expression of Wnt genes after osteoblast-cultured medium for 7 days ([3]; 100 nM, 7 days): obviously upregulated
expression of osteoblast-specified genes Runx2, Ocn, Opn, Col1a1 ([3]; BMSC, 100 nM 0 and 7 days, 0-100 nM 24 h): enhanced in a time-dependent and dose-dependent manner
